# Data: ChEMBL document CHEMBL5550105, “Progress on synthesis and structure-activity relationships of lamellarins over the past decade” (Eur J Med Chem, 2024)
# pIC50: −log10 of the molar value.
# Assays:
# HT-29 = test: Growth inhibition of human HT-29 cells measured for 72 hrs by SRB assay; type: functional
# [1] = molecular target: ATP-dependent translocase ABCB1 (Homo sapiens, UniProt P08183); test: Inhibition of p-glycoprotein (unknown origin) expressed in MDCK-MDR1 cells; type: cell-based
# MCF7 = test: Antiproliferative activity against human MCF7 cells assessed as reduction in cell growth incubated for 48 hrs by MTT assay; type: functional, cell-based; details: MCF7, 48 h
# DU-145 = test: Growth inhibition of human DU-145 cells measured for 72 hrs by SRB assay; type: functional
# HeLa = test: Cytotoxicity against human HeLa cells assessed as reduction in cell viability measured for 48 hrs by crystal violet staining based analysis; type: functional
# Acetylcholinesterase = Acetylcholinesterase (Homo sapiens, UniProt P22303); test: Inhibition of human recombinant AChE using acetylthiocholine iodide substrate incubated for 5 mins by Ellman's spectrophotometric analysis
# Sequence of Acetylcholinesterase (P22303 whole entry): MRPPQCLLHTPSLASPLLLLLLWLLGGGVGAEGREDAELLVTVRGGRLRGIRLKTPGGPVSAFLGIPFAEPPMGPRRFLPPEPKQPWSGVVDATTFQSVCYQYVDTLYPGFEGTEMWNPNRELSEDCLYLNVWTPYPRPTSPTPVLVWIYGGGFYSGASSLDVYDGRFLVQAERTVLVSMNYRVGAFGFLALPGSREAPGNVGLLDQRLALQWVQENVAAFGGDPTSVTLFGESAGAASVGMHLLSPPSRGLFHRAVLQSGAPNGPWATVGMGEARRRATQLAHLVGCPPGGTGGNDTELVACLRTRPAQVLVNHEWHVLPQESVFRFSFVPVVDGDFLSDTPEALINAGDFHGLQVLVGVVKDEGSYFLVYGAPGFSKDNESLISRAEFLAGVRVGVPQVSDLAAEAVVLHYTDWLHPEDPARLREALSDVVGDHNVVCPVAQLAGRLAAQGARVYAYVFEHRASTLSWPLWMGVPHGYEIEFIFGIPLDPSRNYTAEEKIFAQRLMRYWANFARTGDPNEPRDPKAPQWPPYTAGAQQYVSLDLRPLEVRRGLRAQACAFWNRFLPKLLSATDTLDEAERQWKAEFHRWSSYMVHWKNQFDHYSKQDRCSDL
# Sequence of ATP-dependent translocase ABCB1 (P08183 whole entry): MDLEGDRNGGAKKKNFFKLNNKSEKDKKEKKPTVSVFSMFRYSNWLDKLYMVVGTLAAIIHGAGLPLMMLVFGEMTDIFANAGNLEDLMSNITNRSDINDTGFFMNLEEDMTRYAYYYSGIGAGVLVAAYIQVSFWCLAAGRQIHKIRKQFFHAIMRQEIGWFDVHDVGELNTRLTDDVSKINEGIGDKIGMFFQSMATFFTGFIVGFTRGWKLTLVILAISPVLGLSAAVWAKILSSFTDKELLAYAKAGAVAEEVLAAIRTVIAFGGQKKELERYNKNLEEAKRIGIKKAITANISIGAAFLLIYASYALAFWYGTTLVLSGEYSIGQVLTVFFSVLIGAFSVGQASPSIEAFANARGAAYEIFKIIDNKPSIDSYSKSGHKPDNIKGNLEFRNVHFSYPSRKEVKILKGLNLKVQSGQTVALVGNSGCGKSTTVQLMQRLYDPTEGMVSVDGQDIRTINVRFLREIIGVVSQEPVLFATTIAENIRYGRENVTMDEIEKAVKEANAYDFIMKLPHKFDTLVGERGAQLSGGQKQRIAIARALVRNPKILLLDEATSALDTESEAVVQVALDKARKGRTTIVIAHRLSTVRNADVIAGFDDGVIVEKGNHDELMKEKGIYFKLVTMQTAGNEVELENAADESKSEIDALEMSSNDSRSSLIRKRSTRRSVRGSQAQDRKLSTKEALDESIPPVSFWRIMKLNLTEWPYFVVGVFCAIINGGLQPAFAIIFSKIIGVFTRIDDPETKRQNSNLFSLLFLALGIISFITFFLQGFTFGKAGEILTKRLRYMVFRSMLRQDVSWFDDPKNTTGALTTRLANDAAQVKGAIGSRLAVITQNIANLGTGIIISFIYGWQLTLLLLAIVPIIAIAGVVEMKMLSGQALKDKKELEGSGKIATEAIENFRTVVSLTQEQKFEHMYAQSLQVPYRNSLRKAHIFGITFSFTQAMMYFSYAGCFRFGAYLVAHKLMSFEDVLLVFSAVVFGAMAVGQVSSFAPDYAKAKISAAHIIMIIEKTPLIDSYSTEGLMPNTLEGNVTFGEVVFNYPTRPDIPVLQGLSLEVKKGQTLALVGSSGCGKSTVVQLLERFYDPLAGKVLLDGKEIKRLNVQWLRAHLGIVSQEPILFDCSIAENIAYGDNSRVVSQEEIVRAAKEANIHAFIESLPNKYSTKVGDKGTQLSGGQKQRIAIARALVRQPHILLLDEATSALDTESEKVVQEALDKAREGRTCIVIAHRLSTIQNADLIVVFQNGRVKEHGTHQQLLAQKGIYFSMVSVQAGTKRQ
structure (smiles),measurement,setting,value
COCCOCCOCC(=O)Oc1ccc(-c2c3c4cc(OC)c(OC(=O)COCCOCCOC)cc4oc(=O)c3n3ccc4cc(O)c(OC)cc4c23)cc1OC,GI50,HT-29,1280 nM
CCOc1ccc(-c2c(C=O)c(-c3ccco3)n3c2-c2cc(OCC)c(OCC)cc2CC3)cc1OCC,pIC50,[1],6.72
CCOc1cc2c(cc1OCC)-c1c(-c3ccc(F)cc3)c(/C=N/c3ccc(O)cc3)c(-c3ccccc3)n1CC2,pIC50,[1],6.00
Cc1ccc(-c2nc3c(=O)oc4ccccc4c3c3ccoc23)cc1,pIC50,MCF7,5.17
COc1cc(-c2c3c4cc(OC)c(O)cc4oc(=O)c3n3ccc4cc(O)c(OC)cc4c23)ccc1O [LAMELLARIN D],GI50,DU-145,10.9 nM
same,GI50,HT-29,3000 nM
COc1cc(-c2c3c4cc(OC)c(OC(=O)[C@H](N)C(C)C)cc4oc(=O)c3n3ccc4cc(OC(=O)[C@@H](N)C(C)C)c(OC)cc4c23)ccc1OC(=O)[C@@H](N)C(C)C,GI50,DU-145,10.8 nM
COc1cc(-c2c3c4cc(OC)c(O)cc4[nH]c(=O)c3n3ccc4cc(O)c(OC)cc4c23)ccc1O,pIC50,HeLa,6.50
CCOc1cc2c(cc1OCC)-c1c(-c3ccc(Cl)cc3)c(/C=N/c3ccc(/N=C/c4c(-c5ccc(Cl)cc5)c5n(c4-c4ccccc4)CCc4cc(OC)c(OC)cc4-5)cc3)c(-c3ccccc3)n1CC2,pIC50,Acetylcholinesterase,5.33
